Results from PMC4178172, “Molecular Determinants of Agonist Selectivity in Glutamate-Gated Chloride Channels Which Likely Explain the Agonist Selectivity of the Vertebrate Glycine and GABAA-ρ Receptors” (PLoS ONE, 2014).

Legend:
GluClα2b = target: T1, GluClα2b (Caenorhabditis elegans, UniProt O17548, R111L); assay: whole-cell patch clamp, […] glutamate; type: cell-based
T1 construct: gene avr-15; homomeric receptor expressed in CHO-K1 cells
T1 sequence (O17548 21-478 R111L): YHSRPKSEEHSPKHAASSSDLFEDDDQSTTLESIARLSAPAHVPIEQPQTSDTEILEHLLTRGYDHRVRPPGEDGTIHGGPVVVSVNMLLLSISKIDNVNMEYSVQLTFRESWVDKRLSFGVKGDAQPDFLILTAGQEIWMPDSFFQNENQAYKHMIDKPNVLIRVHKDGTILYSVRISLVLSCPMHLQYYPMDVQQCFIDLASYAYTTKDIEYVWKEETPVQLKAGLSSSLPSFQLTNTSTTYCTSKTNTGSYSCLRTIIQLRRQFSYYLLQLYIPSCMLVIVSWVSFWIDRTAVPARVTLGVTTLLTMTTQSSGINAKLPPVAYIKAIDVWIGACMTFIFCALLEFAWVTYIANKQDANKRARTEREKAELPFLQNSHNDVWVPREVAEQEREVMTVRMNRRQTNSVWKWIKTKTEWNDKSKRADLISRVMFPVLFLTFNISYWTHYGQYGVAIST

GluClAc2 = target: T2, GluClAc2 (Aplysia californica, UniProt C7DLK0, Y161A); assay: whole-cell patch clamp, […] glutamate; type: cell-based
T2 construct: homomeric receptor expressed in CHO-K1 cells
T2 sequence (C7DLK0 32-429 Y161A): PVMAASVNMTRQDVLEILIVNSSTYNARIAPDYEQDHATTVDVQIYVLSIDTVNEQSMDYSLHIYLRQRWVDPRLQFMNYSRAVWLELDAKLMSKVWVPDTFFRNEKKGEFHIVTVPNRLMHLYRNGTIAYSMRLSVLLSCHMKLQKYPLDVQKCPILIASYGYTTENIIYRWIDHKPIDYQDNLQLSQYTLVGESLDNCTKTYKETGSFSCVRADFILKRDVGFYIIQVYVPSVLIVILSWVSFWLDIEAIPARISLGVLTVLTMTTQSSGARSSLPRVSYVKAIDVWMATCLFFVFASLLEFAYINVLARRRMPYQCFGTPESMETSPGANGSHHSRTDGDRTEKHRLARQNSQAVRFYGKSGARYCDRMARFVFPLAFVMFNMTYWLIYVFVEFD

## N[C@@H](CCC(=O)O)C(=O)O [glutamate]
GluClα2b
  whole-cell patch clamp, 1-100 mM glutamate: this mutation did not impede a robust response to glutamate at higher concentrations
GluClAc2
  whole-cell patch clamp, 1 mM glutamate: its mutation to an alanine failed to cause any noticeable change in the response to glutamate
